Data taken from ChEMBL document CHEMBL3885861, “Open TG-GATES”.

Organism: Rattus norvegicus
Assay: Open TG-GATES - Regimen: Single
Assay type: toxicity, organism-based, Sprague-Dawley
Parameters: regimen Single, gender Male, age 6 weeks
Details: in vivo, po, 30 mg/kg, route gavage, dose level Low; for APTT / Bas / Eos / Fbg / Hb / Ht / Lym / MCH / MCHC / MCV / Mono / Neu / PT / Plat / RBC / Ret / WBC: tissue Blood; for KIDNEY_L / KIDNEY_R / KIDNEY_TOTAL: tissue Kidney; for LIVER: tissue Liver; for A/G / ALP / ALT / AST / BUN / CRE / Ca / Cl / DBIL / GLC / IP / K / LDH / Na / PL / RALB / TBIL / TC / TG / TP / gamma-GTP: tissue Plasma

SMILES: CCOC(=O)C(C)(C)Oc1ccc(Cl)cc1 [CLOFIBRATE]
- TERMINAL_BW (3 h): 228.4 g
- APTT (3 h): 19.1 s
- Bas (3 h): 0%
- Eos (3 h): 1%
- Fbg (3 h): 234.4 mg/dL
- Hb (3 h): 13.3 g/dL
- Ht (3 h): 38.4%
- Lym (3 h): 80.4%
- MCH (3 h): 21.8 pg
- MCHC (3 h): 34.6%
- MCV (3 h): 62.9 fL
- Mono (3 h): 2.6%
- Neu (3 h): 15.6%
- PT (3 h): 12.3 s
- Plat (3 h): 121.4 x10_4/uL
- RBC (3 h): 611.2 x10_4/ul
- Ret (3 h): 7.5%
- WBC (3 h): 87.8 x10_2/uL
- KIDNEY_L (3 h): 1 g
- KIDNEY_R (3 h): 1 g
- KIDNEY_TOTAL (3 h): 2 g
- LIVER (3 h): 10.5 g
- A/G (3 h): 1.6
- ALP (3 h): 1038.6 IU/L
- ALT (3 h): 38.8 IU/L
- AST (3 h): 71 IU/L
- BUN (3 h): 12.2 mg/dL
- CRE (3 h): 0.3 mg/dL
- Ca (3 h): 11.2 mg/dL
- Cl (3 h): 102.4 meq/L
- DBIL (3 h): 0.4 mg/dL
- GLC (3 h): 199.2 mg/dL
- IP (3 h): 9 mg/dL
- K (3 h): 3.9 meq/L
- LDH (3 h): 199.6 IU/L
- Na (3 h): 139.6 meq/L
- PL (3 h): 178.4 mg/dL
- RALB (3 h): 3.4 g/dL
- TBIL (3 h): 0.4 mg/dL
- TC (3 h): 84 mg/dL
- TG (3 h): 194 mg/dL
- TP (3 h): 5.6 g/dL
- gamma-GTP (3 h): 1.2 IU/L
- TERMINAL_BW (6 h): 224.5 g
- APTT (6 h): 18.6 s
- Bas (6 h): 0%
- Eos (6 h): 1%
- Fbg (6 h): 230 mg/dL
- Hb (6 h): 13.5 g/dL
- Ht (6 h): 38.9%
- Lym (6 h): 78.4%
- MCH (6 h): 21.7 pg
- MCHC (6 h): 34.7%
- MCV (6 h): 62.5 fL
- Mono (6 h): 2.6%
- Neu (6 h): 17.2%
- PT (6 h): 12.3 s
- Plat (6 h): 125.7 x10_4/uL
- RBC (6 h): 623.2 x10_4/ul
- Ret (6 h): 7.3%
- WBC (6 h): 115.7 x10_2/uL
- KIDNEY_L (6 h): 1 g
- KIDNEY_R (6 h): 1 g
- KIDNEY_TOTAL (6 h): 1.9 g
- LIVER (6 h): 9.8 g
- A/G (6 h): 1.6
- ALP (6 h): 1119.8 IU/L
- ALT (6 h): 35.4 IU/L
- AST (6 h): 69.2 IU/L
- BUN (6 h): 7.8 mg/dL
- CRE (6 h): 0.4 mg/dL
- Ca (6 h): 10.7 mg/dL
- Cl (6 h): 103.8 meq/L
- DBIL (6 h): 0.1 mg/dL
- GLC (6 h): 194.6 mg/dL
- IP (6 h): 9 mg/dL
- K (6 h): 4 meq/L
- LDH (6 h): 273 IU/L
- Na (6 h): 140.8 meq/L
- PL (6 h): 143.6 mg/dL
- RALB (6 h): 3.5 g/dL
- TBIL (6 h): 0.2 mg/dL
- TC (6 h): 73 mg/dL
- TG (6 h): 88 mg/dL
- TP (6 h): 5.7 g/dL
- gamma-GTP (6 h): 1.4 IU/L
- TERMINAL_BW (9 h): 223 g
- APTT (9 h): 18.8 s
- Bas (9 h): 0%
- Eos (9 h): 1%
- Fbg (9 h): 228.4 mg/dL
- Hb (9 h): 13.2 g/dL
- Ht (9 h): 37.7%
- Lym (9 h): 79.8%
- MCH (9 h): 21.5 pg
- MCHC (9 h): 34.9%
- MCV (9 h): 61.7 fL
- Mono (9 h): 3.2%
- Neu (9 h): 15.8%
- PT (9 h): 12.8 s
- Plat (9 h): 137.4 x10_4/uL
- RBC (9 h): 611.4 x10_4/ul
- Ret (9 h): 7.4%
- WBC (9 h): 101.8 x10_2/uL
- KIDNEY_L (9 h): 1 g
- KIDNEY_R (9 h): 1 g
- KIDNEY_TOTAL (9 h): 1.9 g
- LIVER (9 h): 9.1 g
- A/G (9 h): 1.6
- ALP (9 h): 814.2 IU/L
- ALT (9 h): 27.6 IU/L
- AST (9 h): 61.4 IU/L
- BUN (9 h): 11.2 mg/dL
- CRE (9 h): 0.4 mg/dL
- Ca (9 h): 10.5 mg/dL
- Cl (9 h): 101.6 meq/L
- DBIL (9 h): 0.076 mg/dL
- GLC (9 h): 216 mg/dL
- IP (9 h): 11.1 mg/dL
- K (9 h): 3.9 meq/L
- LDH (9 h): 238.8 IU/L
- Na (9 h): 140.2 meq/L
- PL (9 h): 127.2 mg/dL
- RALB (9 h): 3.4 g/dL
- TBIL (9 h): 0.1 mg/dL
- TC (9 h): 65.2 mg/dL
- TG (9 h): 54.2 mg/dL
- TP (9 h): 5.5 g/dL
- gamma-GTP (9 h): 1 IU/L
- TERMINAL_BW (24 h): 238.3 g
- APTT (24 h): 20.6 s
- Bas (24 h): 0%
- Eos (24 h): 1%
- Fbg (24 h): 215.6 mg/dL
- Hb (24 h): 13.5 g/dL
- Ht (24 h): 39%
- Lym (24 h): 82%
- MCH (24 h): 21.8 pg
- MCHC (24 h): 34.8%
- MCV (24 h): 62.7 fL
- Mono (24 h): 2.8%
- Neu (24 h): 13.6%
- PT (24 h): 12.6 s
- Plat (24 h): 123.8 x10_4/uL
- RBC (24 h): 620.8 x10_4/ul
- Ret (24 h): 6.6%
- WBC (24 h): 103.6 x10_2/uL
- KIDNEY_L (24 h): 1 g
- KIDNEY_R (24 h): 1 g
- KIDNEY_TOTAL (24 h): 2 g
- LIVER (24 h): 11.1 g
- A/G (24 h): 1.7
- ALP (24 h): 1108.2 IU/L
- ALT (24 h): 34.2 IU/L
- AST (24 h): 66.4 IU/L
- BUN (24 h): 13.8 mg/dL
- CRE (24 h): 0.4 mg/dL
- Ca (24 h): 10.8 mg/dL
- Cl (24 h): 102.8 meq/L
- DBIL (24 h): 0.084 mg/dL
- GLC (24 h): 203.8 mg/dL
- IP (24 h): 7.1 mg/dL
- K (24 h): 3.9 meq/L
- LDH (24 h): 243 IU/L
- Na (24 h): 140.6 meq/L
- PL (24 h): 141 mg/dL
- RALB (24 h): 3.4 g/dL
- TBIL (24 h): 0.1 mg/dL
- TC (24 h): 65 mg/dL
- TG (24 h): 110.4 mg/dL
- TP (24 h): 5.5 g/dL
- gamma-GTP (24 h): 0.6 IU/L
